Results taken from US8357705B2 (priority 2008, dated 2013).

Assays:
[1] = test system: sodium channel binding site 2; parameters: species or system rat

| melting point [°C] | Compound | Inhibition (BTX) Mean [% at 10 μM] [1] [%] |
| --- | --- | --- |
| 65 to 70 | Cc1cnc([C@@H](Cc2c[nH]c3ccccc23)NC2CCC(c3ccccc3)(N(C)C)CC2)o1 (stereo partly shown) | – |
| 71 to 74 | Cc1csc([C@@H](Cc2c[nH]c3ccccc23)NC2CCC(c3ccccc3)(N(C)C)CC2)n1 (stereo partly shown) | – |
| 195 to 228 | CN(C)C1(c2ccccc2)CCC(N(C(=O)C(F)(F)F)C(Cc2c[nH]c3ccccc23)c2nnn[nH]2)CC1 (stereo not shown) | – |
| – | CN(C)C(=O)[C@H](Cc1c[nH]c2ccccc12)NC1CCC(c2ccccc2)(N(C)C)CC1.Cl.Cl (stereo partly drawn) [Example 6, (S)-2-(4-(dimethylamino)-4-phenylcyclohexylamino)-3-(1H-indol-3-yl)-N,N-dimethylpropanamide dihydrochloride] | 15 |
